Among the data in US8680108B2, “Substituted fused aryl and heteroaryl derivatives as PI3K inhibitors” (Incyte Corporation, priority 2009, dated 2014) are IC50 values, retold here.

Structures can show the parent of a compound that is named as a salt.

T1 sequence (O00329 whole entry): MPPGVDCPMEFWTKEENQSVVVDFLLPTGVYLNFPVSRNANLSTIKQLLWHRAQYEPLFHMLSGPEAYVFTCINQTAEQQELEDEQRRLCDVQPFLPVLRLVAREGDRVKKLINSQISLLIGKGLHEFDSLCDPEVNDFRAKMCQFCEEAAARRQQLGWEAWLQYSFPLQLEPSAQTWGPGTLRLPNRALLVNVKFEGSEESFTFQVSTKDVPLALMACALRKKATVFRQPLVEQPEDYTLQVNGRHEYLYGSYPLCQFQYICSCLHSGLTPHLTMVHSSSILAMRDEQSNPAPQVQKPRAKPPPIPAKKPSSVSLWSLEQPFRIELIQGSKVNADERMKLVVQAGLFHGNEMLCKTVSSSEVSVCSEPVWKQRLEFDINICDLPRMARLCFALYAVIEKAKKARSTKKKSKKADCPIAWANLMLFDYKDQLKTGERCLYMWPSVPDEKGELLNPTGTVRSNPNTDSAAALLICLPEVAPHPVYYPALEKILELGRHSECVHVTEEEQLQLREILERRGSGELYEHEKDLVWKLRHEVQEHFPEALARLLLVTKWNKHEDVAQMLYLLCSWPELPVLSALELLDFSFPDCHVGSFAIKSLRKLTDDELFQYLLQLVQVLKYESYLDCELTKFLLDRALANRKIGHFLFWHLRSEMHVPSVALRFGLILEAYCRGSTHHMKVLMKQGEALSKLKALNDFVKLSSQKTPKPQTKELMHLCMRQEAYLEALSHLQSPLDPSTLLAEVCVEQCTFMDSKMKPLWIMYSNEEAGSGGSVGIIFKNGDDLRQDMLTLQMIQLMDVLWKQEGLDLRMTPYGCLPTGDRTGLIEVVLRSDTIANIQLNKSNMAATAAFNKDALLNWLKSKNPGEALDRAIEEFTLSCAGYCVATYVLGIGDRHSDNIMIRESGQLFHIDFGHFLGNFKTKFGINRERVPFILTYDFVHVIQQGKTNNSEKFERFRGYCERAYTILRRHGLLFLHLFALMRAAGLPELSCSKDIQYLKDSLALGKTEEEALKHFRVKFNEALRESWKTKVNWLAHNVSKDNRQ
T1 sequence (P27986 whole entry partner): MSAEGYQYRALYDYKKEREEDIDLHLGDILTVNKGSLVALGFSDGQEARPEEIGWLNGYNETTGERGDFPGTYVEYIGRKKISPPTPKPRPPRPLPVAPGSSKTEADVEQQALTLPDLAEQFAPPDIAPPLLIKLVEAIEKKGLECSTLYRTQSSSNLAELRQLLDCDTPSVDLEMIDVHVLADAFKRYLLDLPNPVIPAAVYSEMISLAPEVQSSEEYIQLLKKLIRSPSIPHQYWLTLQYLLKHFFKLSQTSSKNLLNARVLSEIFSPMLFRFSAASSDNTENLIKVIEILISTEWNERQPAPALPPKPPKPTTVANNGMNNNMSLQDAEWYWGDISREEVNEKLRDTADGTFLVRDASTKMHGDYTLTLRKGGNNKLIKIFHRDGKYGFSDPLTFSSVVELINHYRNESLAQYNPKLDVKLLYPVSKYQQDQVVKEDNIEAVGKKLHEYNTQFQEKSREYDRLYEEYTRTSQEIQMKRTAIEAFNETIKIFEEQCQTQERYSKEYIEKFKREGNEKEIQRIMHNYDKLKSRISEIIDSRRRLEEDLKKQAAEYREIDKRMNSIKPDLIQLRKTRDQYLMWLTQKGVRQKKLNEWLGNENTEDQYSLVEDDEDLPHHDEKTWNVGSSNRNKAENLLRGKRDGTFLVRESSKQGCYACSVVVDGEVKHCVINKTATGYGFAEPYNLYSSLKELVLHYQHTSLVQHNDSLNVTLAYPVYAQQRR

The first assay has as its target T1, PI3Kδ (p110δ/p85α) (Homo sapiens, UniProt O00329).
T1 construct: purchased Millipore (Bedford, Mass.)
The assay is described as follows: PI3Kδ scintillation proximity assay.
Conditions: not given
The format is biochemical. The text has this: Materials: [γ-^33P]ATP (10 mCi/mL) was purchased from Perkin-Elmer (Waltham, Mass.). Lipid kinase substrate, D-myo-Phosphatidylinositol 4,5-bisphosphate (PtdIns(4,5)P2)D (+)-sn-1,2-di-O-octanoylglyceryl, 3-O-phospho linked (PIP2), CAS 204858-53-7, was purchased from Echelon Biosciences (Salt Lake City, Utah). PI3Kδ (p110δ/p85α) was purchased from Millipore (Bedford, Mass.). ATP, MgCl2, DTT, EDTA, MOPS and CHAPS were purchased from Sigma-Aldrich (St. Louis, Mo.). Wheat Germ Agglutinin (WGA) YSi SPA Scintillation Beads was purchased from GE healthcare life sciences (Piscataway, N.J.).
Assay: The kinase reaction was conducted in polystyrene 384-well matrix white plate from Thermo Fisher Scientific in a final volume of 25 μL. Inhibitors were first diluted serially in DMSO and added to the plate wells before the addition of other reaction components. The final concentration of DMSO in the assay was 0.5%. The PI3K assays were carried out at room temperature in 20 mM MOPS, pH 6.7, 10 mM MgCl2, 5 mM DTT and CHAPS 0.03%. Reactions were initiated by the addition of ATP, the final reaction mixture consisted of 20 μM PIP2, 20 μM ATP, 0.2 μCi [γ-^33P] ATP, 4 nM PI3Kδ. Reactions were incubated for 210 minutes and terminated by the addition of 40 μL SPA beads suspended in quench buffer: 150 mM potassium phosphate pH 8.0, 20% glycerol. 25 mM EDTA, 400 μM ATP. The final concentration of SPA beads is 1.0 mg/mL. After the plate sealing, plates were shaken overnight at room temperature and centrifuged at 1800 rpm for 10 minutes, the radioactivity of the product was determined by scintillation counting on Topcount (Perkin-Elmer). IC50 determination was performed by fitting the curve of percent control activity versus the log of the inhibitor concentration using the GraphPad Prism® 3.0 software.
(In general: In a scintillation proximity assay essentially only radioactivity close to the scintillant gives light.)
What is called IC50 is the midpoint of a concentration-inhibition curve. `CC(Nc1ncnc2[nH]cnc12)c1cc(Cl)c2cccnc2c1N1CCN(C(=O)c2cnccn2)CC1` (stereo not shown) [Example 97, N-(1-{5-Chloro-8-[4-(pyrazin-2-ylcarbonyl)piperazin-1-yl]quinolin-7-yl}ethyl)-9H-purin-6-amine bis(trifluoroacetate)]: the IC50 was < 50 nM.

The molecule `CC(Nc1ncnc2[nH]cnc12)c1ccc2cccnc2c1-c1cc(F)cc(F)c1` (stereo not shown) [Example 6, N-{1-[8-(3,5-difluorophenyl)quinolin-7-yl]ethyl}-9H-purin-6-amine bis-trifluoroacetate] came in with a half-inhibitory concentration (IC50) of 500 to 1000 nM. Regarding `CC(Nc1ncnc2[nH]cnc12)c1cc(Cl)c2conc2c1-c1cccc(F)c1` (stereo not shown) [Example 104, N-{1-[4-Chloro-7-(3-fluorophenyl)-2,1-benzisoxazol-6-yl]ethyl}-9H-purin-6-amine], the IC50 is < 50 nM. Regarding `Cc1cc(C(C)Nc2ncnc3[nH]cnc23)c(-c2cc(F)cc(F)c2)c2nnccc12` (single isomer, unassigned) [Example 38, N-{1-[8-(3,5-difluorophenyl)-5-methylcinnolin-7-yl]ethyl}-9H-purin-6-amine], the IC50 is < 50 nM. The same measure, in the same setting: the value for `Cc1cc(C(C)Nc2ncnc3[nH]cnc23)c(-c2cc(F)cc(F)c2)c2nnccc12` (single isomer, unassigned) [Example 39, N-{1-[8-(3,5-difluorophenyl)-5-methylcinnolin-7-yl]ethyl}-9H-purin-6-amine] was > 1000 nM. `CC(Nc1ncnc2[nH]cnc12)c1cc(Cl)c2cccnc2c1N1CCN(C(=O)c2cccc(F)c2)CC1` (stereo not shown) [Example 92, N-(1-{5-Chloro-8-[4-(3-fluorobenzoyl)piperazin-1-yl]quinolin-7-yl}ethyl)-9H-purin-6-amine bis(trifluoroacetate)]: the IC50 is 100 to 250 nM.

Turning to `Cc1noc(C)c1C(=O)N1CCN(c2c(C(C)Nc3ncnc4[nH]cnc34)cc(Cl)c3cccnc23)CC1` (stereo not shown) [Example 100, N-[1-(5-Chloro-8-{4-[(3,5-dimethylisoxazol-4-yl)carbonyl]piperazin-1-yl}quinolin-7-yl)ethyl]-9H-purin-6-amine bis(trifluoroacetate)], the IC50 was < 50 nM.

For the molecule `CC(Nc1ncnc2[nH]cnc12)c1cc(Cl)c2cccnc2c1N1CCN(C2CC2)CC1` (stereo not shown) [Example 66, N-{1-[5-Chloro-8-(4-cyclopropylpiperazin-1-yl)quinolin-7-yl]ethyl}-9H-purin-6-amine tris(trifluoroacetate)], the IC50 is < 50 nM. Consider `CC(Nc1ncnc2[nH]cnc12)c1cc(Cl)c2cccnc2c1N1CCC(NS(C)(=O)=O)CC1` (stereo not shown) [Example 81, N-(1-{5-Chloro-7-[1-(9H-purin-6-ylamino)ethyl]quinolin-8-yl}piperidin-4-yl)methanesulfonamide bis(trifluoroacetate)], for which the IC50 is 100 to 250 nM.

`CC(Nc1ncnc2[nH]cnc12)c1ccc2ccccc2c1-c1cccc(F)c1` (stereo not shown) [Example 1, N-{1-[1-(3-fluorophenyl)-2-naphthyl]ethyl}-9H-purin-6-amine trifluoroacetate]: the IC50 was 100 to 250 nM.

On to `Cc1nc2c(-c3cccc(F)c3)c(C(C)Nc3ncnc4[nH]cnc34)ccc2s1` (stereo not shown) [Example 2, N-{1-[4-(3-fluorophenyl)-2-methyl-1,3-benzothiazol-5-yl]ethyl}-9H-purin-6-amine trifluoroacetate], for which the IC50 is > 1000 nM. Regarding `CC(Nc1ncnc2[nH]cnc12)c1cc(Cl)c2cccnc2c1N1CCC(F)(F)CC1` (stereo not shown) [Example 47, N-{1-[5-Chloro-8-(4,4-difluoropiperidin-1-yl)quinolin-7-yl]ethyl}-9H-purin-6-amine], the IC50 is 500 to 1000 nM. `CC(Nc1ncnc2[nH]cnc12)c1ccc2ccccc2c1-c1cncc(F)c1` (stereo not shown) [Example 5, N-{1-[1-(5-fluoropyridin-3-yl)-2-napthyl]ethyl}-9H-purin-6-amine bis-trifluoroacetate]: the IC50 is < 50 nM. Regarding `CC(=O)N1CCC(C(=O)N2CCN(c3c(C(C)Nc4ncnc5[nH]cnc45)cc(Cl)c4cccnc34)CC2)CC1` (stereo not shown) [Example 94, N-[1-(8-{4-[(1-Acetylpiperidin-4-yl)carbonyl]piperazin-1-yl}-5-chloroquinolin-7-yl)ethyl]-9H-purin-6-amine bis(trifluoroacetate)], the IC50 is < 50 nM. In the case of `CC(Nc1ncnc2[nH]cnc12)c1cc(F)c2ccnnc2c1-c1cccc(F)c1` (single isomer, unassigned) [Example 21, N-{1-[5-Fluoro-8-(3-fluorophenyl)cinnolin-7-yl]ethyl}-9H-purin-6-amine], the IC50 is > 1000 nM. As to `CC(Nc1ncnc2[nH]cnc12)c1cc(Cl)c2ccccc2c1N1CCC(O)CC1` (stereo not shown) [Example 45, 1-{4-Chloro-2-[1-(9H-purin-6-ylamino)ethyl]-1-naphthyl}piperidin-4-ol], the concentration for half-maximal inhibition (IC50) is < 50 nM. For the molecule `CC(Nc1ncnc2[nH]cnc12)c1cc(Cl)c2cccnc2c1N1CCC(C#N)CC1` (stereo not shown) [Example 59, 1-{5-Chloro-7-[1-(9H-purin-6-ylamino)ethyl]quinolin-8-yl]piperidine-4-carbonitrile bis(trifluoroacetate)], the IC50 fell in the range of 100 to 250 nM.

In the case of `CC(Nc1ncnc2[nH]cnc12)c1cc(Cl)c2cccnc2c1N1CCN(C2CCCCC2)CC1` (stereo not shown) [Example 65, N-{1-[5-Chloro-8-(4-cyclohexylpiperazin-1-yl)quinolin-7-yl]ethyl}-9H-purin-6-amine tris(trifluoroacetate)], the IC50 was 50 to 100 nM. Molecule `CC(Nc1ncnc2[nH]cnc12)c1cc(C#N)c2cccnc2c1-c1cccc(F)c1` (stereo not shown) [Example 52, 8-(3-fluorophenyl)-7-[1-(9H-purin-6-ylamino)ethyl]quinoline-5-carbonitrile] yielded an IC50 of 50 to 100 nM. Turning to `CC(Nc1ncnc2[nH]cnc12)c1cc(Cl)c2ccnnc2c1-c1ccccc1F` (single isomer, unassigned) [Example 28, N-{1-[5-Chloro-8-(2-fluorophenyl)cinnolin-7-yl]ethyl}-9H-purin-6-amine], the IC50 is < 50 nM.

As for `CCC(Nc1ncnc2[nH]cnc12)c1cc(Cl)c2ccnnc2c1-c1cccc(F)c1` (single isomer, unassigned) [Example 33, N-{1-[5-chloro-8-(3-fluorophenyl)cinnolin-7-yl]propyl}-9H-purin-6-amine], the IC50 was < 50 nM.

In the case of `CC(Nc1ncnc2[nH]cnc12)c1cc(Cl)c2ccnnc2c1-c1ccccc1F` (single isomer, unassigned) [Example 27, N-{1-[5-Chloro-8-(2-fluorophenyl)cinnolin-7-yl]ethyl}-9H-purin-6-amine], the IC50 fell in the range of 50 to 100 nM. Still for that read-out and setting: the value for `CC(Nc1ncnc2[nH]cnc12)c1cc(Cl)c2cccnc2c1N1CCN(C(=O)c2ccncc2)CC1` (stereo not shown) [Example 98, N-{1-[5-Chloro-8-(4-isonicotinoylpiperazin-1-yl)quinolin-7-yl]ethyl}-9H-purin-6-amine tris(trifluoroacetate)] was < 50 nM; that for `CC(Nc1nc(N)nc2[nH]cnc12)c1cc(F)c2ccnnc2c1-c1cccc(F)c1` (single isomer, unassigned) [Example 22, N(6)-{1-[5-Fluoro-8-(3-fluorophenyl)cinnolin-7-yl]ethyl}-9H-purine-2,6-diamine] was < 50 nM.

For `CCc1cc(C(C)Nc2ncnc3[nH]cnc23)c(-c2cccc(F)c2)c2ncccc12` (stereo not shown) [Example 51, N-{1-[5-Ethyl-8-(3-fluorophenyl)quinolin-7-yl]ethyl}-9H-purin-6-amine bis(trifluoroacetate)], the IC50 fell in the range of 50 to 100 nM. As to `CC(Nc1ncnc2[nH]cnc12)c1cc(Cl)c2cccnc2c1N1CCN(C(=O)c2cccnc2)CC1` (stereo not shown) [Example 96, N-(1-{5-Chloro-8-[4-(pyridin-3-ylcarbonyl)piperazin-1-yl]quinolin-7-yl}ethyl)-9H-purin-6-amine tris(trifluoroacetate)], the IC50 was < 50 nM.

Take `CC(Nc1ncnc2[nH]cnc12)c1cc(Cl)c2cccnc2c1N1CCC(c2ccccc2)CC1` (stereo not shown) [Example 72, N-{1-[5-Chloro-8-(4-phenylpiperidin-1-yl)quinolin-7-yl]ethyl}-9H-purin-6-amine bis(trifluoroacetate)]: the IC50 is > 1000 nM.

For `CC(Nc1ncnc2[nH]cnc12)c1cc(Cl)c2cccnc2c1N1CCCC(F)C1` (stereo not shown) [Example 61, N-{1-[5-Chloro-8-(3-fluoropiperidin-1-yl)quinolin-7-yl]ethyl}-9H-purin-6-amine bis(trifluoroacetate)], the IC50 lay within 250 to 500 nM. Turning to `CC(Nc1ncnc2[nH]cnc12)c1cc(F)c2ccnnc2c1-c1cccc(F)c1` (stereo not shown) [Example 19, N-{1-[5-Fluoro-8-(3-fluorophenyl)cinnolin-7-yl]ethyl}-9H-purin-6-amine], the IC50 lay within 100 to 250 nM.

Still in this assay, the particulars now being: separated isomer, 1st peak.
With `CC(Nc1ncnc2[nH]cnc12)c1ccc2cccnc2c1-c1ccccc1F` (stereo not shown) [Example 7, N-{1-[8-(2-fluorophenyl)quinolin-7-yl]ethyl}-9H-purin-6-amine bis-trifluoroacetate], the IC50 is > 1000 nM.

Staying with this assay, now noted: separated isomer, 2nd peak.
In the case of `CC(Nc1ncnc2[nH]cnc12)c1ccc2cccnc2c1-c1ccccc1F` (stereo not shown) [Example 7, N-{1-[8-(2-fluorophenyl)quinolin-7-yl]ethyl}-9H-purin-6-amine bis-trifluoroacetate], the IC50 fell in the range of 500 to 1000 nM.
